Broadly, the melting point is the temperature of the solid-liquid transition. What is called IC50 is the concentration that inhibits the measured activity by half. Low values mean greater potency, high ones weaker potency.

These results are taken from US6414145B1, “Imidazolyl compounds as inhibitors of farnesyl-protein tranferase” (Zeneca Limited, priority 1997, dated 2002).

Series [1] addresses T1, Farnesyl protein transferase (FPT) (Homo sapiens, UniProt P49354+P49356).
T1 construct: partially purified from human placenta by ammonium sulphate fractionation; from tissue; host or cells: human placenta
The experiment in a line: Farnesyl protein transferase (FPT) inhibition, tritiated farnesyl pyrophosphate incorporation into Kras (CVIM). Format: biochemical. As to conditions: FPT partially purified from human placenta; 300 nM tritiated farnesyl pyrophosphate, 120 nM ras-CVIM, 20 minutes at 37°. The method, then: Biological activity was tested as follows. Farnesyl protein transferase (FPT) was partially purified from human placenta by ammonium sulphate fractionation followed by a single Q-Sepharose™ (Pharmacia, Inc) anion exchange chromatography essentially as described by Ray and Lopez-Belmonte (Ray K P and Lopez-Belmonte J (1992) Biochemical Society Transations 20 494-497). The substrate for FPT was Kras (CVIM C-terminal sequence). The cDNA for oncogenic va112 variant of human c-Ki-ras-2 4B was obtained from the plasmid pSW11-1 (ATCC). This was then subcloned into the polylinker of a suitable expression vector e.g. pIC147, The Kras was obtained after expression in the E. coli strain, BL21. The expression and purification of c-KI-ras-2 4B and the val12 variant in E. coli has also been reported by Lowe et al (Lowe P N et al. J. Biol. Chem. (1991) 266 1672-1678).
Incubations with enzyme contained 300 nM tritiated farnesyl pyrophosphate (DuPont/New England Nuclear), 120 nM ras-CVIM, 50 mM Tris HCl pH 8.0, 5 mM MgCl2, 10 μM ZnCl2, 5 mM dithiotheitol and compounds were added at appropriate concentrations in DMSO (3% final concentration in test and vehicle control). […] Precipitated protein was then collected onto glass fibre filter mats (B) using a Tomtec™ cell harvester and tritiated label was measured in a Wallac™ 1204 Betaplate scintillation counter.

Turning to `CSCC[C@H](NC(=O)c1cccc(/C=C(\Cn2ccnc2)c2ccc(F)cc2)c1)C(=O)O` [Example 3, (2S)-2-{3-[(Z)-2-(4-fluorophenyl)-3-(imidazol-1-yl)-prop-1-enyl]-benzamido}-4-methylsulfanylbutyric acid], the melting point lay within 98 to 100 °C.

In the case of `CSCC[C@H](NC(=O)c1ccc(/C=C(/Cn2ccnc2)c2ccc(F)cc2)cc1)C(=O)O` [Example 12, (2S)-2-{4-[(E)-2-(4-Fluorophenyl)-3-(imidazol-1-yl)-prop-1-en-1-yl]benzamido}-4-methylsulfanylbutyric acid], the melting point came out at 106 °C.

As to `CSCC[C@H](NC(=O)c1ccc(/C=C(\c2ccccc2)C(C)n2ccnc2)cc1)C(=O)O` (stereo partly drawn) [Example 6, (2S)-2-{4-[(E)-3-(imidazol-1-yl)-3-methyl-2-phenyl-prop-1-enyl]-benzamido}-4-methylsulfanylbutyric acid], the IC50 in series [1] was about 150 nM.
